Experimental data from patent publication US10441562B2, “Aromatic farnesyl compound and application thereof” (INSTITUTE OF MICROBIOLOGY, CHINESE ACADEMY OF SCIENCES, priority 2015, dated 2019).

Tests used:
Kunming species mice = test: acute toxicity test of mice; conditions: mouse, in vivo
Procedure: (§1) Materials: 20 Kunming species mice of 6-8 weeks of 20-22 g are purchased from Beijing Vital River Laboratory Animal Technology Co., Ltd.,
(§2) Accurately weigh the 2 compounds S13 and S28, and then add 0.5% CMC-Na to make the solution of 0.2 g/ml.
(§3) After being acclimatized for 3-5 days, the mice are fasted at 18:00 in the day before the experiment, free drinking. The mice are randomly divided into groups of 10 animals in each and given with medicine by intragastric administration, and 0.25 ml of drugs is given to every 10 g weight of mice, i.e. dose 5 g/kg. Mice of control group are given with 0.5% CMC-Na by intragastric administration, and 0.25 ml of solution are given to every 10 g weight of mice.
(§4) After administration, observe the general status of mice, such as appearance, behavior, response to stimulus, secretion and excretion, and record the time when abnormal phenomena happen. If death occurred, record time and observe the abnormal phenomena by autopsy.

[1] = acute toxicity test of mice; conditions: Kunming, mouse, in vivo, po, 5 g/kg
Procedure: as §1, §2, §3, §4

[2] = system: hyperglycemia KK-A^y mice; test: blood sugar of hyperglycemia KK-A^y mice; format: in vivo; set-up: blood sugar: unit not given here; conditions: for blood sugar at the 1st day, 0: 1st day 0 h; for blood sugar at the 1st day, 30 min: 1st day 30 min after intragastric administration
Procedure: (§5) Materials: accurately weigh the 2 compounds S13 and S28 discussed in example 2, and then add 0.5% CMC-Na to make the solution of 5 mg/ml used for activity test. KK-A^y mice are purchased from Chinese Academy of Medical Sciences & Peking Union Medical College Institute of Animal Studies. Experiments are carried out after adapting to the environment (T=20-24° C., constant humidity: 50-60%, 12 hours light exposure (8:00-20:00), soundproof, free feeding and drinking) for 1 week. Glucometer is purchased from Roche.
(§6) Methods: 10 male C57 mice of 6-8 weeks of 20-22 g are used as normal control group (1). Detect the fasting glucose of male KK-A^y mice, which are 6-8 weeks with the weight of 28-32 g, and divide them into different groups according to the blood sugar level and body weight: (2) model control group, (3) which is administered by compound S13 with the dose of 1 mg/kg, (4) which is administered by compound S13 with the dose of 5 mg/kg, (5) which is administered by compound S13 with the dose of 10 mg/kg, (6) which is administered by compound S13 with the dose of 20 mg/kg, (7) which is administered by compound S28 with the dose of 1 mg/kg, (8) which is administered by compound S28 with the dose of 5 mg/kg, (9) which is administered by compound S28 with the dose of 10 mg/kg, (10) which is administered by compound S28 with the dose of 20 mg/kg, (11) which is administered by metformin with the dose of 8 g/kg, (12) which is administered by compound S13 with the dose of 2.5 mg/kg and metformin with the dose of 4 g/kg, (13) which is administered by compound S13 with the dose of 5 mg/kg and metformin with the dose of 4 g/kg, (14) which is administered by compound S28 with the dose of 2.5 mg/kg and metformin with the dose of […], (15) which is administered by compound S28 with the dose of 5 mg/kg and metformin with the dose of […]. Each group has 8 mice, and is administrated successively for 3 weeks. Model control group is given with equal amounts of 0.5% CMC-Na.
1) Effects of drugs on blood sugar: at the first day after administration, the mice are fasted for 2 hours and blood is collected (0 h) to detect the fasting blood sugar. After the compound is given to the mice by intragastric administration for 30 min, blood is collected from tip of tail to detect the blood sugar level.
(§7) 2) Effects on body weight and blood sugar: the body weight of mice are recorded at the 2th, 5th, 8th, 11th, 14th, 17th, 20th day after administration, and blood is collected from tip of tail to detect the blood sugar level (see table 10).

[3] = body weight of hyperglycemia KK-A^y mice; format: in vivo
Procedure: as §5, §6, §7

[4] = system: hyperglycemia mice induced by alloxan; test: blood sugar of hyperglycemia mice induced by alloxan; format: in vivo, Kunming species mice; conditions: 50 mg/kg, 10 days
Procedure: Blood glucose determination kit (batch number 20140403) is purchased from Nanjing Jiancheng Bioengineering Institute. Methods: after being acclimatized for 1 week, 10 randomly selected Kunming species male mice of SPF level of 20±2 g are used as control group, while the other 50 mice are given alloxan to make model by intraperitoneal injection according to body weight 220 mg/kg.

dipeptidyl peptidase-4 = target: T1, dipeptidyl peptidase-4 (Homo sapiens, UniProt P27487); test: dipeptidyl peptidase-4 inhibitory activity test in vitro (DPP-4 inhibitor screening kit); format: biochemical
T1 construct: purchased
T1 sequence (P27487 whole entry, species assumed): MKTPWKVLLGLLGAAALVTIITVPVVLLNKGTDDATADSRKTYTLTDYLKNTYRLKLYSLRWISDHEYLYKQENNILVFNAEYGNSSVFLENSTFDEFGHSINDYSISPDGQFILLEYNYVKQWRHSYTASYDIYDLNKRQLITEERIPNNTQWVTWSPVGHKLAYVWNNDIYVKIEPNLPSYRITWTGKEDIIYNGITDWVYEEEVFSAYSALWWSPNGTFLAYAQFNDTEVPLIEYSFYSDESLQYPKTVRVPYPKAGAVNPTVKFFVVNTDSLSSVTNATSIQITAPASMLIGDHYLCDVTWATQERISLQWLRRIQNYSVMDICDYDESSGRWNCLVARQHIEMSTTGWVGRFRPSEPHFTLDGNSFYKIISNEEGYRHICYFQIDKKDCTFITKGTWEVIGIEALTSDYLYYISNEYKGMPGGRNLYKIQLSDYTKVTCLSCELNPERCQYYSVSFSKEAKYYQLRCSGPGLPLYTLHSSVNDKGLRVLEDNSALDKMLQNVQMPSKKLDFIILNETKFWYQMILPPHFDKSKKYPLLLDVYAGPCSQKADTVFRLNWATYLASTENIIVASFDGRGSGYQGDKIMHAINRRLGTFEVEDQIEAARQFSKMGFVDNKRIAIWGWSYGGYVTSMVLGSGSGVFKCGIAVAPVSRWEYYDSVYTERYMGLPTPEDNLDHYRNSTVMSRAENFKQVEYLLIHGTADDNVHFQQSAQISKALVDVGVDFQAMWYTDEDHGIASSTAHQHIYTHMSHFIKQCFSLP
Description: The above compounds are detected by DPP-4 inhibitor screening kit.

[5] = 2st day, 20 mg/kg, groups 6, 10
[6] = 5st day, 20 mg/kg, groups 6, 10
[7] = 8st day, 20 mg/kg, groups 6, 10
[8] = 11st day, 10 mg/kg, groups 5, 9
[9] = 11st day, 20 mg/kg, groups 6, 10
[10] = 14st day, 10 mg/kg, groups 5, 9
[11] = 14st day, 20 mg/kg, groups 6, 10
[12] = 17st day, 10 mg/kg, groups 5, 9
[13] = 17st day, 20 mg/kg, groups 6, 10
[14] = 20st day, 10 mg/kg, groups 5, 9
[15] = 20st day, 20 mg/kg, groups 6, 10

Q: With `CC(C)=CCC/C(C)=C/CCC1=C[C@@H](c2cc(O)ccc2O)OC1=O` [S28, (S,E)-5-(2,5-dihydroxyphenyl)-3-(4,8-dimethylnona-3,7-dien-1-yl)furan-2(5H)-one] as the compound, how does the “abnormal phenomena by autopsy” value (Kunming species mice) read?
A: no obvious abnormal phenomena are found by autopsy

Q: What about the “body weight of mice after administration” value (Kunming species mice) of the same compound?
A: drop slightly

Q: And the LD50 [1]?
A: > 5000 mg/kg

Q: And the “effect on blood sugar of hyperglycemia mice (in words)” value [2]?
A: significant effects on blood sugar of hyperglycemia mice

Q: What about the “blood sugar at the 1st day, 0” value ([2]; 1 mg/kg, groups 3, 7) of the same compound?
A: 14.5

Q: And the “blood sugar at the 1st day, 0” value ([2]; 5 mg/kg, groups 4, 8)?
A: 14.5

Q: What about the “blood sugar at the 1st day, 0” value ([2]; 10 mg/kg, groups 5, 9) of the same compound?
A: 14.2

Q: And the “blood sugar at the 1st day, 0” value ([2]; 20 mg/kg, groups 6, 10)?
A: 14.1

Q: And the “blood sugar at the 1st day, 30 min” value ([2]; 1 mg/kg, groups 3, 7)?
A: 11.3

Q: What about the “blood sugar at the 1st day, 30 min” value ([2]; 5 mg/kg, groups 4, 8) of the same compound?
A: 9.42

Q: And the “blood sugar at the 1st day, 30 min” value ([2]; 10 mg/kg, groups 5, 9)?
A: 9.32

Q: What about the “blood sugar at the 1st day, 30 min” value ([2]; 20 mg/kg, groups 6, 10) of the same compound?
A: 6.24

Q: What about the blood sugar ([2]; 2st day, 1 mg/kg, groups 3, 7) of the same compound?
A: 17.23

Q: What about the blood sugar ([2]; 2st day, 5 mg/kg, groups 4, 8) of the same compound?
A: 10.2

Q: And the blood sugar ([2]; 2st day, 10 mg/kg, groups 5, 9)?
A: 13.12

Q: And the blood sugar [2, 5]?
A: 13.25

Q: What about the blood sugar ([2]; 5st day, 1 mg/kg, groups 3, 7) of the same compound?
A: 14.1

Q: And the blood sugar ([2]; 5st day, 5 mg/kg, groups 4, 8)?
A: 10.8

Q: And the blood sugar ([2]; 5st day, 10 mg/kg, groups 5, 9)?
A: 13.5

Q: And the blood sugar [2, 6]?
A: 12.5

Q: What about the blood sugar ([2]; 8st day, 1 mg/kg, groups 3, 7) of the same compound?
A: 13.8

Q: What about the blood sugar ([2]; 8st day, 5 mg/kg, groups 4, 8) of the same compound?
A: 7.12

Q: And the blood sugar ([2]; 8st day, 10 mg/kg, groups 5, 9)?
A: 14.1

Q: And the blood sugar [2, 7]?
A: 12.8

Q: And the blood sugar ([2]; 11st day, 1 mg/kg, groups 3, 7)?
A: 15.3

Q: And the blood sugar ([2]; 11st day, 5 mg/kg, groups 4, 8)?
A: 8.21

Q: What about the blood sugar [2, 8] of the same compound?
A: 14.3

Q: And the blood sugar [2, 9]?
A: 12.9

Q: And the blood sugar ([2]; 14st day, 1 mg/kg, groups 3, 7)?
A: 12.4

Q: What about the blood sugar ([2]; 14st day, 5 mg/kg, groups 4, 8) of the same compound?
A: 8.3

Q: What about the blood sugar [2, 10] of the same compound?
A: 13.2

Q: And the blood sugar [2, 11]?
A: 12.5

Q: And the blood sugar ([2]; 17st day, 1 mg/kg, groups 3, 7)?
A: 13.1

Q: What about the blood sugar ([2]; 17st day, 5 mg/kg, groups 4, 8) of the same compound?
A: 8.2

Q: What about the blood sugar [2, 12] of the same compound?
A: 14.5

Q: And the blood sugar [2, 13]?
A: 12.5

Q: And the blood sugar ([2]; 20st day, 1 mg/kg, groups 3, 7)?
A: 12.43

Q: What about the blood sugar ([2]; 20st day, 5 mg/kg, groups 4, 8) of the same compound?
A: 10.23

Q: What about the blood sugar [2, 14] of the same compound?
A: 14.12

Q: What about the blood sugar [2, 15] of the same compound?
A: 12.45

Q: And the “effect on body weight (in words)” value [3]?
A: litter effect on body weight

Q: And the Body weight ([3]; 2st day, 1 mg/kg, groups 3, 7)?
A: 30.1 g

Q: And the Body weight ([3]; 2st day, 5 mg/kg, groups 4, 8)?
A: 30.3 g

Q: What about the Body weight ([3]; 2st day, 10 mg/kg, groups 5, 9) of the same compound?
A: 30.3 g

Q: And the Body weight [3, 5]?
A: 30.4 g

Q: What about the Body weight ([3]; 5st day, 1 mg/kg, groups 3, 7) of the same compound?
A: 30.23 g

Q: What about the Body weight ([3]; 5st day, 5 mg/kg, groups 4, 8) of the same compound?
A: 30.43 g

Q: And the Body weight ([3]; 5st day, 10 mg/kg, groups 5, 9)?
A: 30.51 g

Q: And the Body weight [3, 6]?
A: 30.36 g

Q: And the Body weight ([3]; 8st day, 1 mg/kg, groups 3, 7)?
A: 30.6 g

Q: What about the Body weight ([3]; 8st day, 5 mg/kg, groups 4, 8) of the same compound?
A: 30.8 g

Q: What about the Body weight ([3]; 8st day, 10 mg/kg, groups 5, 9) of the same compound?
A: 30.4 g

Q: What about the Body weight [3, 7] of the same compound?
A: 30.2 g

Q: What about the Body weight ([3]; 11st day, 1 mg/kg, groups 3, 7) of the same compound?
A: 30.8 g

Q: And the Body weight ([3]; 11st day, 5 mg/kg, groups 4, 8)?
A: 31.3 g

Q: What about the Body weight [3, 8] of the same compound?
A: 31.4 g

Q: And the Body weight [3, 9]?
A: 30.5 g

Q: What about the Body weight ([3]; 14st day, 1 mg/kg, groups 3, 7) of the same compound?
A: 31.25 g

Q: What about the Body weight ([3]; 14st day, 5 mg/kg, groups 4, 8) of the same compound?
A: 31.76 g

Q: And the Body weight [3, 10]?
A: 32.56 g

Q: What about the Body weight [3, 11] of the same compound?
A: 30.4 g

Q: And the Body weight ([3]; 17st day, 1 mg/kg, groups 3, 7)?
A: 31.4 g

Q: And the Body weight ([3]; 17st day, 5 mg/kg, groups 4, 8)?
A: 31.5 g

Q: What about the Body weight [3, 12] of the same compound?
A: 32.6 g

Q: And the Body weight [3, 13]?
A: 30.7 g

Q: And the Body weight ([3]; 20st day, 1 mg/kg, groups 3, 7)?
A: 32.1 g

Q: And the Body weight ([3]; 20st day, 5 mg/kg, groups 4, 8)?
A: 31.3 g

Q: What about the Body weight [3, 14] of the same compound?
A: 32.2 g

Q: What about the Body weight [3, 15] of the same compound?
A: 30.2 g

Q: And the “effect on blood sugar level of hyperglycemic mice (in words)” value [4]?
A: significantly decrease the blood sugar level of hyperglycemic mice

Q: What about the IC50 (dipeptidyl peptidase-4) of the same compound?
A: 6.8 µM
